One may read the IC50 as the concentration that gives 50% inhibition.

A value given as a limit tells only on which side of the number the result lay.

From patent publication US8569344B2, “N-piperidinyl acetamide derivatives as calcium channel blockers” (Zalicus Pharmaceuticals Ltd., priority 2008, dated 2013) come the findings set out here.

Assay [1] concerns the target T1, human α1H T-type channels (Homo sapiens, UniProt O95180).
T1 construct: expressed in transfected cells; host or cells: HEK 293
The experiment in a line: T-type calcium channel block, whole cell patch clamp in HEK cells (α1H). In kind it is cell-based. The note with it: HEK cells, patch clamp, mainly non-inactivated protocol; values above 10 μM shown as 10 μM; read-out: T-type Calcium Channel Block α1H IC50. How it is done: (§1) T-type calcium channel blocking activity was assayed in human embryonic kidney cells, HEK 293, stably transfected with the T-type calcium channel subunits. Briefly, cells were cultured in Dulbecco's modified eagle medium (DMEM) supplemented with 10% fetal bovine serum, 200 U/ml penicillin and 0.2 mg/ml streptomycin at 37° C. with 5% CO2. At 85% confluency cells were split with 0.25% trypsin/1 mM EDTA and plated at 10% confluency on glass coverslips. […] Fresh DMEM was supplied and the cells transferred to 28° C./5% CO2. Cells were incubated for 1 to 2 days prior to whole cell recording.
(§2) Standard patch-clamp techniques were employed to identify blockers of T-type currents. Briefly, previously described HEK cell lines stably expressing human α1G, α1H and α1I T-type channels were used for all the recordings (passage #: 4-20, 37° C., 5% CO2). Whole cell patch clamp experiments were performed using an Axopatch 200B amplifier (Axon Instruments, Burlingame, Calif.) linked to a personal computer equipped with pCLAMP software. Data were analyzed using Clampfit (Axon Instruments) and SigmaPlot 4.0 (Jandel Scientific). To obtain T-type currents, plastic dishes containing semi-confluent cells were positioned on the stage of a ZEISS AXIOVERT S100 microscope after replacing the culture medium with external solution (see below). Whole-cell patches were obtained using pipettes (borosilicate glass with filament, O.D.: 1.5 mm, I.D.: 0.86 mm, 10 cm length), fabricated on a SUTTER P-97 puller with resistance values of ˜5 MΩ (see below for internal solution).
(§3) In the non-inactivating protocol, the holding potential is set at −110 mV and with a pre-pulse at −100 mV for 1 second prior to the test pulse at −40 mV for 50 ms.
(§4) Test compounds were dissolved in external solution, 0.1-0.01% DMSO. After ˜10 min rest, they were applied by gravity close to the cell using a WPI microfil tubing. The “non-inactivated” pre-pulse was used to examine the resting block of a compound. The “inactivated” protocol was employed to study voltage-dependent block. […] Values are shown in μM and values above 10 μM are simply represented as 10 μM.
(The patch-clamp technique gives a direct electrical read-out from membranes.)

Assay [2] has as its target T2, human α1G T-type channels (Homo sapiens, UniProt O43497).
T2 construct: expressed in transfected cells; host or cells: HEK 293
The experiment in a line: T-type calcium channel block, whole cell patch clamp in HEK cells (α1G). The following applies: HEK cells, patch clamp, mainly non-inactivated protocol; values above 10 μM shown as 10 μM, below 0.30 μM shown as 0.30 μM; read-out: T-type Calcium Channel Block α1G IC50. In kind it is cell-based. On the procedure: as §1, §2, §3, §4

T1 sequence (O95180 whole entry): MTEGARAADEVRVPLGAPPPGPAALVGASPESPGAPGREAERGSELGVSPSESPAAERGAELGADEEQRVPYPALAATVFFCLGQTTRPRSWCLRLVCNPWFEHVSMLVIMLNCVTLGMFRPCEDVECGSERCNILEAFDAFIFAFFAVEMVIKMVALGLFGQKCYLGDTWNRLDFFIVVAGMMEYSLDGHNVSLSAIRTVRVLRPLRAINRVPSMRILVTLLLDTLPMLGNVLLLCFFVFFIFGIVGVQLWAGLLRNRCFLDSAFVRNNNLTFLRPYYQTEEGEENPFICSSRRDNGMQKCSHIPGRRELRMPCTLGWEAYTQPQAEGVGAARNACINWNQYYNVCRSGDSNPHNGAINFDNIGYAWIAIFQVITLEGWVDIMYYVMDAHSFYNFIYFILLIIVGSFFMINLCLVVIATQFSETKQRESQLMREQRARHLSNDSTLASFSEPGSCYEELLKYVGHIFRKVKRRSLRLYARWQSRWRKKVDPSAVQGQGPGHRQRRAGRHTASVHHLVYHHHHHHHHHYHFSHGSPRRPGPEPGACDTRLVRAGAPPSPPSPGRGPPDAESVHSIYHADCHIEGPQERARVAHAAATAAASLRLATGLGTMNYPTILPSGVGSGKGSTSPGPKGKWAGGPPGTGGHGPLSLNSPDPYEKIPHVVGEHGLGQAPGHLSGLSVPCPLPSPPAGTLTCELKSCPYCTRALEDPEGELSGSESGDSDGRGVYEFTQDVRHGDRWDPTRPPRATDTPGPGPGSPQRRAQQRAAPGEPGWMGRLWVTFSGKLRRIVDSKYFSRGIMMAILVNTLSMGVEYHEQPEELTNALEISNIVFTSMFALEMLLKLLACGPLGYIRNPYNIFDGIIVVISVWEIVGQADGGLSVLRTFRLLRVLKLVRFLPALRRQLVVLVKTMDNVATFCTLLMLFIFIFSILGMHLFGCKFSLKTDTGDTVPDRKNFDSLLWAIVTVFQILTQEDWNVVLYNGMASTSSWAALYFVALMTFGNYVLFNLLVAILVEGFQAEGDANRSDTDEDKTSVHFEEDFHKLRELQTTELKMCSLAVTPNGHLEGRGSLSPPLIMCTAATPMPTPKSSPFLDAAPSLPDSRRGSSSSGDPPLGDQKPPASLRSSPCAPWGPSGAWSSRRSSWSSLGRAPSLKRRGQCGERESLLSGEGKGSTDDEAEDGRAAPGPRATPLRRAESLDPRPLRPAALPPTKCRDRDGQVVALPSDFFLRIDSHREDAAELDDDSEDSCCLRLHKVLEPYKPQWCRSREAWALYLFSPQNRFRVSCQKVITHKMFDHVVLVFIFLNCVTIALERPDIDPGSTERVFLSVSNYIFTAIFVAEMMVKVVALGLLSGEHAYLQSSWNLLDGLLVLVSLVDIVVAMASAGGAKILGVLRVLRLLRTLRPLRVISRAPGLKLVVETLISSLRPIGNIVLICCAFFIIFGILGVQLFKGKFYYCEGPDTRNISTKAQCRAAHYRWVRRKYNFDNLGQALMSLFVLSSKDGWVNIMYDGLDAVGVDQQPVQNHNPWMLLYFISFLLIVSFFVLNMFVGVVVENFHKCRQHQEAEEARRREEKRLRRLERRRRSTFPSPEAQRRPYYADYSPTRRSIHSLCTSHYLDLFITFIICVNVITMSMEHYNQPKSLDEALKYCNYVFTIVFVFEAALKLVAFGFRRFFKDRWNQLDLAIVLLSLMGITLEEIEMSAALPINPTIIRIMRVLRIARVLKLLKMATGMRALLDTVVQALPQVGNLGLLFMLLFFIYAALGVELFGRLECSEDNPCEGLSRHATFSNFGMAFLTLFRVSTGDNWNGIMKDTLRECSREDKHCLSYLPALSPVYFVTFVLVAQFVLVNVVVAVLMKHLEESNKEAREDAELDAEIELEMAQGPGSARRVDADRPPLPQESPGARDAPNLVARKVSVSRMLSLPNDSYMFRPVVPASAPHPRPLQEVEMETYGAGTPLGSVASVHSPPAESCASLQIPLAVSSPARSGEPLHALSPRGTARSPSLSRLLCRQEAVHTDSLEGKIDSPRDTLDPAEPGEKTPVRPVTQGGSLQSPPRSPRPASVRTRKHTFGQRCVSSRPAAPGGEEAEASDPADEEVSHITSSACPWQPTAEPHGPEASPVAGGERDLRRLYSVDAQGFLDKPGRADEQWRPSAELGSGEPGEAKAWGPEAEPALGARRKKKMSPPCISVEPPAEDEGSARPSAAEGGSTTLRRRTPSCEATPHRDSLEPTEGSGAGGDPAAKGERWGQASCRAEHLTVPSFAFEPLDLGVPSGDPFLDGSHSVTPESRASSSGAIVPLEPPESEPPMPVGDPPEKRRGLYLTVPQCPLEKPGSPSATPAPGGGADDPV
T2 sequence (O43497 whole entry): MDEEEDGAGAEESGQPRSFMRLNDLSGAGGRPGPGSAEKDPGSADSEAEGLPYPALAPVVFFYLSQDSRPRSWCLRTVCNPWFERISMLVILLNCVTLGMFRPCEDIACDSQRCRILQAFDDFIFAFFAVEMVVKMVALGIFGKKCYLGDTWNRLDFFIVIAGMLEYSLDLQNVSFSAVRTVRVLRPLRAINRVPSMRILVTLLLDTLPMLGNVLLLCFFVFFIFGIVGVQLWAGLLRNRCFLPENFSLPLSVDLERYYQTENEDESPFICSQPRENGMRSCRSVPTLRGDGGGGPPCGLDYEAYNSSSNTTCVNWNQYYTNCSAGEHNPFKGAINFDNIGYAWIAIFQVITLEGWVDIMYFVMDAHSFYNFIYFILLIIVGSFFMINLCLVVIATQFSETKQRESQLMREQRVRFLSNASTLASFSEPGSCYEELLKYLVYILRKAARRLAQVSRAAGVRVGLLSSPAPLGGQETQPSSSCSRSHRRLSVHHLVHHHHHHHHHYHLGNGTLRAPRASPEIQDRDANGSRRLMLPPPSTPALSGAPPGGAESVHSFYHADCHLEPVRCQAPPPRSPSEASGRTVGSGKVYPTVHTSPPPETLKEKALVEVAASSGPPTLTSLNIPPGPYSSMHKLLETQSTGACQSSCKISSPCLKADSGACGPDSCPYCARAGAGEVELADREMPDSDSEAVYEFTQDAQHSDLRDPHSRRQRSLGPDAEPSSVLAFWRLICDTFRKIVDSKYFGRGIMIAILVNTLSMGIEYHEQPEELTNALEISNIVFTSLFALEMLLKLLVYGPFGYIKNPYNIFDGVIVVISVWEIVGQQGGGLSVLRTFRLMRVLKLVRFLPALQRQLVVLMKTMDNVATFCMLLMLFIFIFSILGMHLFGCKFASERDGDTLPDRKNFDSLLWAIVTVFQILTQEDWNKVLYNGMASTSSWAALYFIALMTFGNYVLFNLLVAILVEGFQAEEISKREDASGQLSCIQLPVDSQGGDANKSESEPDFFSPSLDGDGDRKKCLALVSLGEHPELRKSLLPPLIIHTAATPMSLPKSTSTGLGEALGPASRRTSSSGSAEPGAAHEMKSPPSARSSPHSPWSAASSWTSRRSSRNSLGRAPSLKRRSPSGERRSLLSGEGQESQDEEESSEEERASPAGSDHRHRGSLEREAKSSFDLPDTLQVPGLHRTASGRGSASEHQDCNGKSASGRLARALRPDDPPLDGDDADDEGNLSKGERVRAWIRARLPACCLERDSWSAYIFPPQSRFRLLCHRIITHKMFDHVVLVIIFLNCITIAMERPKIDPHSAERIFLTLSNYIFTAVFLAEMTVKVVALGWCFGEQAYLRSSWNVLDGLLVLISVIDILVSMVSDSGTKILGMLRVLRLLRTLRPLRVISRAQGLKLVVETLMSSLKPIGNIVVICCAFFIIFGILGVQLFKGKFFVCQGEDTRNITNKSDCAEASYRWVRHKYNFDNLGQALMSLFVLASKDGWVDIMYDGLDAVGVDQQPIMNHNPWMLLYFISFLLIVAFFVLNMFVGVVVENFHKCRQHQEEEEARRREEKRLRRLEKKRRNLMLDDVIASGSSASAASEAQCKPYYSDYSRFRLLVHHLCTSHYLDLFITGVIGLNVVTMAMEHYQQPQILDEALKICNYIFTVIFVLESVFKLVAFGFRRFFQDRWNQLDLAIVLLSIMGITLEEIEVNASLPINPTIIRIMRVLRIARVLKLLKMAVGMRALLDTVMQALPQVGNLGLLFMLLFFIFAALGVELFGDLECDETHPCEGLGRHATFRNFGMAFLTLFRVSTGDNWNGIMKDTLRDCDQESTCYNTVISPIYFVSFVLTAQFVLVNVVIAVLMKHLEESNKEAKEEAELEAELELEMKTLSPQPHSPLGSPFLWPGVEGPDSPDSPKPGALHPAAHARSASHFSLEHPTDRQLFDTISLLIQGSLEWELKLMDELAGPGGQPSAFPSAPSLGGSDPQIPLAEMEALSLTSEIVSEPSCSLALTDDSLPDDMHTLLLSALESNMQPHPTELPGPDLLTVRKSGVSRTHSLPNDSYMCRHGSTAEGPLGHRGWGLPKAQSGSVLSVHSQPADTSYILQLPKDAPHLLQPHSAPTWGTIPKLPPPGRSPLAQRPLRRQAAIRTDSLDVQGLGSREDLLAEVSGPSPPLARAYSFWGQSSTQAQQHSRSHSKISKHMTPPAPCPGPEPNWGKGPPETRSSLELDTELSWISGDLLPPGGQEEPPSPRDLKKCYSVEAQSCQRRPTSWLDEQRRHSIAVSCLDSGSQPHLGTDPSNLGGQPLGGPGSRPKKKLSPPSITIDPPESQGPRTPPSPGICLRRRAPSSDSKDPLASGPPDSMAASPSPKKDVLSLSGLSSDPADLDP

In the case of `COc1cc(Cl)cc(C(=O)NCC2CCN(CC(=O)N(C)C(C)(C)C)CC2)c1` [Compound 596, N-((1-(2-(tert-butyl(methyl)amino)-2-oxoethyl)piperidin-4-yl)methyl)-3-chloro-5-methoxy-benzamide], the half-maximal inhibitory concentration (IC50) in assay [1] turned out to be 0.16 µM.
Regarding `CC1CCCN(C(=O)CN2CCC(CNC(=O)c3cc(C(F)(F)F)cc(C(F)(F)F)c3)CC2)C1` (stereo not drawn) [Compound 99, N-((1-(2-(3-methylpiperidin-1-yl)-2-oxoethyl)piperidin-4-yl)methyl)-3,5-bis(trifluoromethyl)benzamide], the IC50 in assay [1] is 0.21 µM.
As for `O=C(CN1CCC(CNC(=O)c2cc(C(F)(F)F)cc(C(F)(F)F)c2)CC1)NC1CCCC1` [Compound 92, N-((1-(2-(cyclopentylamino)-2-oxoethyl)piperidin-4-yl)methyl)-3,5-bis(trifluoromethyl)benzamide], in assay [1], the half-inhibitory concentration (IC50) was 0.06 µM.
The same measure, in the same setting: for `O=C(NCC1CCN(C2CN(C(=O)C3(C(F)(F)F)CC3)C2)CC1)c1cc(F)cc(Cl)c1` [Compound 609, 3-chloro-5-fluoro-N-((1-(1-(1-(trifluoromethyl)cyclopropanecarbonyl)azetidin-3-yl)piperidin-4-yl)methyl) benzamide] the value was 3.05 µM.
For the compound `O=C(NCC1CCN(C(=O)CNC2CC2)CC1)c1cc(F)cc(C(F)(F)F)c1` [Compound 284, N-((1-(2-(cyclopropylamino)acetyl)piperidin-4-yl)methyl)-3-fluoro-5-(trifluoromethyl)benzamide], in assay [1], the IC50 is above 10 µM.
With `O=C(NCC1CCN(CC(=O)N2CCCC(O)C2)CC1)c1cc(C(F)(F)F)cc(C(F)(F)F)c1` (stereo not drawn) [Compound 98, N-((1-(2-(3-hydroxypiperidin-1-yl)-2-oxoethyl)piperidin-4-yl)methyl)-3,5-bis(trifluoromethyl)benzamide], the IC50 in assay [1] is 3.6 µM.
On the same count and under the same terms, for `CC1(C(=O)N2CC(N3CCC(CNC(=O)c4cc(F)cc(Cl)c4)CC3)C2)CCC(F)(F)CC1` [Compound 611, 3-chloro-N-((1-(1-(4,4-difluoro-1-methylcyclohexanecarbonyl)azetidin-3-yl)piperidin-4-yl)methyl)-5-fluorobenzamide] the value was 0.29 µM; for `O=C(NCC1CCN(CC(=O)N2CCC(C(F)(F)F)CC2)CC1)c1cc(C(F)(F)F)cc(C(F)(F)F)c1` [Compound 108, N-((1-(2-oxo-2-(4-(trifluoromethyl)piperidin-1-yl)ethyl)piperidin-4-yl)methyl)-3,5-bis(trifluoromethyl) benzamide], 0.25 µM; for `O=C(NCC1CCN(C2CN(C(=O)c3cc(F)cc(C(F)(F)F)c3)C2)CC1)c1cc(F)cc(Cl)c1` [Compound 604, 3-chloro-5-fluoro-N-((1-(1-(3-fluoro-5-(trifluoromethyl)benzoyl)azetidin-3-yl)piperidin-4-yl)methyl)benzamide], 1.9 µM.
Consider `O=C(NCC1CCN(CCNC(=O)C2CCCC2)CC1)c1cc(Cl)cc(C(F)(F)F)c1` [Compound 405, 3-chloro-N-((1-(2-(cyclopentanecarboxamido)ethyl)piperidin-4-yl)methyl)-5-(trifluoromethyl)benzamide], for which the IC50 in assay [2] was below 0.3 µM.
`CC(C)(O)C(=O)N1CCC(CC(=O)Nc2cc(C(F)(F)F)cc(C(F)(F)F)c2)CC1` [Compound 154, N-(3,5-bis(trifluoromethyl)phenyl)-2-(1-(2-hydroxy-2-methylpropanoyl)piperidin-4-yl)acetamide]: in assay [2], the IC50 was found to be 6.71 µM.
For the compound `CCS(=O)(=O)NC(CN1CCC(CC(=O)NCc2cc(Cl)cc(Cl)c2)CC1)C(C)(C)C` (stereo not drawn) [Compound 208, N-(3,5-dichlorobenzyl)-2-(1-(2-(ethylsulfonamido)-3,3-dimethylbutyl)piperidin-4-yl)acetamide], the IC50 in assay [2] is above 10 µM.
For `O=C(NCC1CCN(CCNC(=O)C2CCCC2)CC1)c1cccc(C(F)(F)F)c1` [Compound 398, N-((1-(2-(cyclopentanecarboxamido)ethyl)piperidin-4-yl)methyl)-3-(trifluoromethyl)benzamide], in assay [2], the IC50 came out at 3.53 µM.
On to `O=C(NCC1CCN(C[C@@H]2CCCN2S(=O)(=O)CCC(F)(F)F)CC1)c1cc(F)cc(C(F)(F)F)c1` [Compound 422, (S)-3-fluoro-5-(trifluoromethyl)-N-((1-((1-(3,3,3-trifluoropropyl-sulfonyl)pyrrolidin-2-yl)methyl)piperidin-4-yl)methyl) benzamide], for which the IC50 in assay [2] was determined as 1.93 µM.
Consider `CC(C)(C)OC(=O)NCCN1CCC(CNC(=O)c2ccc(F)cc2F)CC1` [Compound 51, tert-butyl 2-(4-((2,4-difluorobenzamido)methyl)piperidin-1-yl)ethylcarbamate], for which the IC50 in assay [2] was above 10 µM.
Same read-out and setting: then `CC(C)(C)OC(=O)NCCN1CCC(CNC(=O)c2ccccc2OC(F)(F)F)CC1` [Compound 55, tert-butyl 2-(4-((2-(trifluoromethoxy)benzamido)methyl)piperidin-1-yl)ethylcarbamate], with above 10 µM; and `CC(C)(C)OC(=O)NC(CN1CCC(CC(=O)NCCc2c[nH]c3ccccc23)CC1)C(C)(C)C` (stereo not drawn) [Compound 197, tert-butyl 1-(4-(2-(2-(1H-indol-3-yl)ethylamino)-2-oxoethyl)piperidin-1-yl)-3,3-dimethylbutan-2-ylcarbamate], with above 10 µM.
Take `COc1cc(C(=O)NCC2CCN(CCNC(=O)C3CCCC3)CC2)cc(C(F)(F)F)c1` [Compound 404, N-((1-(2-(cyclopentanecarboxamido)ethyl)piperidin-4-yl)methyl)-3-methoxy-5-(trifluoromethyl)benzamide]: the IC50 in assay [2] came out at 0.38 µM.
`O=C(NCC1CCN(C[C@@H]2CCCN2S(=O)(=O)C2CC2)CC1)c1cc(F)cc(C(F)(F)F)c1` [Compound 418, (S)-N-((1-((1-(cyclopropylsulfonyl)pyrrolidin-2-yl)methyl)piperidin-4-yl)methyl)-3-fluoro-5-(trifluoromethyl) benzamide]: the IC50 in assay [2] worked out at 2.17 µM.
Turning to `O=C(CC1CCN(C(=O)[C@H]2CCCN2)CC1)Nc1cc(C(F)(F)F)cc(C(F)(F)F)c1` [Compound 191, (R)-N-(3,5-bis(trifluoromethyl)phenyl)-2-(1-(pyrrolidine-2-carbonyl)piperidin-4-yl)acetamide], the IC50 in assay [2] was above 10 µM.
Consider `CC(C)(C)[C@H](O)C(=O)N1CCC(CNC(=O)c2cc(C(F)(F)F)cc(C(F)(F)F)c2)CC1` [Compound 76, (S)-N-((1-(2-hydroxy-3,3-dimethylbutanoyl)piperidin-4-yl)methyl)-3,5-bis(trifluoromethyl) benzamide], for which, in assay [2], the IC50 was 7.62 µM.
As for `O=C(NCC1CCN(CCNC(=O)C2CCCC2)CC1)c1cccc(Br)c1` [Compound 400, 3-bromo-N-((1-(2-(cyclopentanecarboxamido)ethyl)piperidin-4-yl)methyl)benzamide], in assay [2], the IC50 turned out to be 1.5 µM.
On to `Cc1cc(C)cc(C(=O)NCC2CCN(CCNC(=O)C3CCCC3)CC2)c1` [Compound 392, N-((1-(2-(cyclopentanecarboxamido)ethyl)piperidin-4-yl)methyl)-3,5-dimethyl-benzamide], for which the IC50 in assay [2] was 2.01 µM.
For `CCC(O)(C(=O)N1CCC(CNC(=O)c2cc(C(F)(F)F)cc(C(F)(F)F)c2)CC1)C(C)(C)C` (stereo not drawn) [Compound 90, N-((1-(2-ethyl-2-hydroxy-3,3-dimethylbutanoyl)piperidin-4-yl)methyl)-3,5-bis(trifluoromethyl)benzamide], the IC50 in assay [2] was determined as 4.27 µM.
